By EC50 is commonly meant the concentration giving half of the maximal effect.

The record followed here is patent publication US9796711B2, “Substituted pyrazolo[3,4-b]pyridin-6-carboxylic acids and method of use” (AbbVie S.àr.l., priority 2015, dated 2017).

The structures appear in SMILES notation. Bounds are passed on as bounds.

For assay [1], the target named is T1, ΔF508-CFTR (Homo sapiens, UniProt P13569, DEL508-508).
T1 construct: host or cells: CFBE41o-, doxycycline-inducible
In words: CFTR cell surface levels using HRP-tagged ΔF508-CFTR expressing CFBE cells, in the presence of a co-corrector. It is filed as cell-based. The note with it: HRP-tagged ΔF508-CFTR expressing CFBE cells, in the presence of 3 μM co-corrector; for EC50: read-out: EC50. Summed up:
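Cells were seeded with 0.5 μg/mL doxycycline and held 68 h at 37 °C. Test compounds plus 3 μM co-corrector (final 0.1% DMSO) were then added for 20 h at 33 °C. Washed cells received HRP substrate, and luminescence was normalized between DMSO and 3 μM co-corrector controls.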

Assay [2] concerns the target T1, ΔF508-CFTR. In words: CFTR cell surface levels using HRP-tagged ΔF508-CFTR expressing CFBE cells, intrinsic corrector capacity. The note with it: for EC50: read-out: EC50. It is filed as cell-based. Summed up: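 Here the cells express ΔF508-CFTR with horseradish peroxidase inserted in extracellular loop 4, so only rescued channel at the surface gives luminescent signal. Compounds act on their own, 20 h at the reduced temperature of 33 °C; values are percent activity relative to DMSO and a 3 μM corrector.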

Where [3] appears, read: HRP-tagged ΔF508-CFTR expressing CFBE cells, intrinsic corrector capacity (no co-corrector), 33° C., 20 hours.
The mark [4] stands for this setting: HRP-tagged ΔF508-CFTR CFBE41o- cells, compounds alone (intrinsic corrector capacity), 20 hours at 33° C., positive control 3 μM corrector.
Where [5] appears, read: HRP-tagged ΔF508-CFTR CFBE41o- cells, compounds alone (intrinsic corrector capacity), 20 hours at 33° C.

T1 sequence (P13569 with tags, fused parts or gaps DEL508-508): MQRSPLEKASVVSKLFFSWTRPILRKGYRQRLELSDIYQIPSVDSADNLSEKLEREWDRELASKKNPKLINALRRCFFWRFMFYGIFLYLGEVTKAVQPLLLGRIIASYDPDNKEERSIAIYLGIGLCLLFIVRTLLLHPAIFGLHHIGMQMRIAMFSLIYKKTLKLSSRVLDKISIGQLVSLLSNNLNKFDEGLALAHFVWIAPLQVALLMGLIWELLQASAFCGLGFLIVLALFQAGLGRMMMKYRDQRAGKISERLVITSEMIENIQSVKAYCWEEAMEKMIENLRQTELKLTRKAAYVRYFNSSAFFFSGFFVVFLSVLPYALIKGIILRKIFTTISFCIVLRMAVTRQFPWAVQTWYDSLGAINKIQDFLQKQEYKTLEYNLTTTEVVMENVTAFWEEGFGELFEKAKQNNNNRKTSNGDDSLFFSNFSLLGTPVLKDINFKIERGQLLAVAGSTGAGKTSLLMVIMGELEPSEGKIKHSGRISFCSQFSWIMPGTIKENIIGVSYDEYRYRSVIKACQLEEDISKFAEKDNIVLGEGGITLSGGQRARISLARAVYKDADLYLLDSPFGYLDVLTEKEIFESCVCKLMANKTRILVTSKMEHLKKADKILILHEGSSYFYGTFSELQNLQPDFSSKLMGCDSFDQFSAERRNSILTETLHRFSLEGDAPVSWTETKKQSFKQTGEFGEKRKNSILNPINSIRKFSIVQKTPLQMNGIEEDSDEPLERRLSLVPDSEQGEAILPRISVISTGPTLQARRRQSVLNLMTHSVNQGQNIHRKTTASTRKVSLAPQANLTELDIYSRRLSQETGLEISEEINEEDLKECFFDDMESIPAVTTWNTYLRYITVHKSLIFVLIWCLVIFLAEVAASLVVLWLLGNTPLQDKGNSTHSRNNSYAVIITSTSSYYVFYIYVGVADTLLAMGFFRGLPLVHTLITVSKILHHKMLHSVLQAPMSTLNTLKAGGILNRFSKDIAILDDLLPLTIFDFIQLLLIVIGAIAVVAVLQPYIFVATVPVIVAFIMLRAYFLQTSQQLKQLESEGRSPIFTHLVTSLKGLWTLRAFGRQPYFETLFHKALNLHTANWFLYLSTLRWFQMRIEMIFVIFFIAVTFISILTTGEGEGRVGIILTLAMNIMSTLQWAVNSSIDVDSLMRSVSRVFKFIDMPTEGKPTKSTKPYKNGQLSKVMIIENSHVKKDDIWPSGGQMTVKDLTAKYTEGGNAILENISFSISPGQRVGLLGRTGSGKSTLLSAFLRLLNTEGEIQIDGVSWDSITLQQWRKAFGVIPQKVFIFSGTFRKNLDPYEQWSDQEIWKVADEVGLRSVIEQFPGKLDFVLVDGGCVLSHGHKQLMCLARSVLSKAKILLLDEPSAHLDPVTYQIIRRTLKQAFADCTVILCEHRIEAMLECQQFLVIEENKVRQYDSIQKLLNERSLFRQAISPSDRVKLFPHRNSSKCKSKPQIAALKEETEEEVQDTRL

In the case of `CN(C1CCOCC1)C1CCN(c2cc(C(=O)O)nc3c2c(C2CCC2)nn3-c2ccc(F)cc2)CC1` [compound 854, 3-cyclobutyl-1-(4-fluorophenyl)-4-{4-[methyl(oxan-4-yl)amino]piperidin-1-yl}-1H-pyrazolo[3,4-b]pyridine-6-carboxylic acid], on ΔF508-CFTR [1], the “% Activation” value amounted to 380.7% and the half-maximal effective concentration (EC50) turned out to be 3330 nM. For the same compound, on ΔF508-CFTR [2] (setting [3]), the “% Activation” value came out at 131.1% and the EC50 amounted to 2080 nM.

On to `O=CN1CCN(CC2CCN(c3cc(C(=O)O)nc4c3c(C3CCC3)nn4-c3ccccc3)CC2)CC1` [compound 843, 3-cyclobutyl-4-{4-[(4-formylpiperazin-1-yl)methyl]piperidin-1-yl}-1-phenyl-1H-pyrazolo[3,4-b]pyridine-6-carboxylic acid], for which the “% Activation” value at ΔF508-CFTR [1] came to 499.3%; on ΔF508-CFTR [2] (setting [3]), 264.2%. Besides, the EC50 on ΔF508-CFTR [1] was 207 nM; at ΔF508-CFTR [2] (setting [3]) it was 366 nM.

As to `Cc1nn(-c2ccccc2)c2nc(C(=O)O)cc(OCC3CCCC3(F)F)c12` (centres unmarked) [compound 389, 4-[(2,2-difluorocyclopentyl)methoxy]-3-methyl-1-phenyl-1H-pyrazolo[3,4-b]pyridine-6-carboxylic acid], the results for the “% Activation” value at ΔF508-CFTR [1] and at ΔF508-CFTR [2] (setting [4]) were 280.6% and 101.73%, respectively. In addition, the EC50 worked out at 1290 nM at ΔF508-CFTR [1] and 1670 nM at ΔF508-CFTR [2] (setting [5]).

With `COCC1(F)CCN(c2cc(C(=O)O)nc3c2c(C2CCC2)nn3-c2ccccc2)CC1` [compound 463, 3-cyclobutyl-4-[4-fluoro-4-(methoxymethyl)piperidin-1-yl]-1-phenyl-1H-pyrazolo[3,4-b]pyridine-6-carboxylic acid], the figures for the “% Activation” value on ΔF508-CFTR [1] and at ΔF508-CFTR [2] (setting [3]) were 341.85% and 157.75%, respectively. Besides, the figures for the EC50 on ΔF508-CFTR [1] and at ΔF508-CFTR [2] (setting [3]) were 373 nM and 686 nM, respectively.

On to `O=C(O)c1cc(N2CCC(N3CC4CC3CO4)CC2)c2c(C3CCC3)nn(-c3ccc(F)cc3)c2n1` (centres unmarked) [compound 852, 3-cyclobutyl-1-(4-fluorophenyl)-4-[4-(2-oxa-5-azabicyclo[2.2.1]heptan-5-yl)piperidin-1-yl]-1H-pyrazolo[3,4-b]pyridine-6-carboxylic acid], for which, at ΔF508-CFTR [1], the “% Activation” value is 391.4% and the EC50 came to 3330 nM. At ΔF508-CFTR [2] (setting [3]), the “% Activation” value is 120.6% and the 50% effective concentration (EC50) came out at 1710 nM.

Turning to `CC(C)c1nn(C2CCCCC2)c2nc(C(=O)O)cc(-c3ccc(N4CCC(F)(F)C4)nc3)c12` [compound 181, 1-cyclohexyl-4-[6-(3,3-difluoropyrrolidin-1-yl)pyridin-3-yl]-3-(propan-2-yl)-1H-pyrazolo[3,4-b]pyridine-6-carboxylic acid], the figures for the “% Activation” value on ΔF508-CFTR [1] and on ΔF508-CFTR [2] (setting [4]) were 397.95% and 149.2%, respectively. For the same compound, the EC50 on ΔF508-CFTR [1] came out at 1060 nM; at ΔF508-CFTR [2] (setting [5]), 1220 nM.

For the compound `CN(c1ccc(-c2cc(C(=O)O)nc3c2c(C2CCC2)nn3-c2cccc(N3CCCC3)c2)cc1)C1CCOCC1` [compound 251, 3-cyclobutyl-4-{4-[methyl(oxan-4-yl)amino]phenyl}-1-[3-(pyrrolidin-1-yl)phenyl]-1H-pyrazolo[3,4-b]pyridine-6-carboxylic acid], the “% Activation” value is reported as 577.73% on ΔF508-CFTR [1] and 389.2% at ΔF508-CFTR [2] (setting [4]). Moreover, the values for the EC50 on ΔF508-CFTR [1] and at ΔF508-CFTR [2] (setting [5]) were 353 nM and 438 nM, respectively.

Take `COCCN(C)c1ccc(-c2cc(C(=O)O)nc3c2c(C(C)C)nn3-c2cccc(N3CCOCC3)c2)cn1` [compound 179]: the “% Activation” value at ΔF508-CFTR [1] was 548%; on ΔF508-CFTR [2] (setting [4]), 329.25%. Also, the EC50 at ΔF508-CFTR [1] is 978 nM; on ΔF508-CFTR [2] (setting [5]), 2820 nM.

For the compound `Cc1nn(-c2ccccc2)c2nc(C(=O)O)cc(-c3ccc(N4CCN(CC#N)CC4)cc3)c12` [compound 98, 4-{4-[4-(cyanomethyl)piperazin-1-yl]phenyl}-3-methyl-1-phenyl-1H-pyrazolo[3,4-b]pyridine-6-carboxylic acid], the “% Activation” value at ΔF508-CFTR [1] was determined as 350.65%; on ΔF508-CFTR [2] (setting [4]), 165.8%. The EC50 on ΔF508-CFTR [1] is 834 nM; on ΔF508-CFTR [2] (setting [5]), 1150 nM.

For the compound `Cc1nn(-c2ccccc2)c2nc(C(=O)O)cc(-c3ccc(N4CCC(O)C4)cc3)c12` (centres unmarked) [compound 153, 4-[4-(3-hydroxypyrrolidin-1-yl)phenyl]-3-methyl-1-phenyl-1H-pyrazolo[3,4-b]pyridine-6-carboxylic acid], the entries for the “% Activation” value on ΔF508-CFTR [1] and at ΔF508-CFTR [2] (setting [4]) were 386.85% and 198.45%, respectively. Also, the EC50 at ΔF508-CFTR [1] worked out at 1200 nM; at ΔF508-CFTR [2] (setting [5]), 1530 nM.

As to `CCOC(=O)N1CCN(C2CCN(c3cc(C(=O)O)nc4c3c(C3CCC3)nn4-c3ccc(F)cc3)CC2)CC1` [compound 891, 3-cyclobutyl-4-{4-[4-(ethoxycarbonyl)piperazin-1-yl]piperidin-1-yl}-1-(4-fluorophenyl)-1H-pyrazolo[3,4-b]pyridine-6-carboxylic acid], at ΔF508-CFTR [1], the “% Activation” value stood at 564.5% and the EC50 stood at 51 nM. Also, at ΔF508-CFTR [2] (setting [3]), the “% Activation” value was 367.25% and the EC50 was determined as 93.1 nM.

Regarding `COCC1CN(c2cc(C(=O)O)nc3c2c(C2CCC2)nn3-c2ccccc2)C1` [compound 418, 3-cyclobutyl-4-[3-(methoxymethyl)azetidin-1-yl]-1-phenyl-1H-pyrazolo[3,4-b]pyridine-6-carboxylic acid], at ΔF508-CFTR [1], the “% Activation” value stood at 342.25% and the half-maximal effective concentration (EC50) is 598 nM. Besides, on ΔF508-CFTR [2] (setting [3]), the “% Activation” value is 144.95% and the EC50 was 1220 nM.

Regarding `CC1(C)CC(c2nn(-c3ccccc3)c3nc(C(=O)O)cc(-c4ccc(N5CCC(C#N)CC5)nc4)c23)C1` [compound 430, 4-[6-(4-cyanopiperidin-1-yl)pyridin-3-yl]-3-(3,3-dimethylcyclobutyl)-1-phenyl-1H-pyrazolo[3,4-b]pyridine-6-carboxylic acid], at ΔF508-CFTR [1], the “% Activation” value was 342.17% and the EC50 is 243 nM. On ΔF508-CFTR [2] (setting [3]), the “% Activation” value is 175.73% and the EC50 was found to be 373 nM.

For `O=C(O)c1cc(OC2CC3(COC3)C2)c2c(C3CCC3)nn(-c3ccccc3)c2n1` [compound 495, 3-cyclobutyl-4-[(2-oxaspiro[3.3]heptan-6-yl)oxy]-1-phenyl-1H-pyrazolo[3,4-b]pyridine-6-carboxylic acid], the “% Activation” value at ΔF508-CFTR [1] amounted to 235.15%; at ΔF508-CFTR [2] (setting [3]) it was 95.96%. Besides, the EC50 on ΔF508-CFTR [1] was found to be 307 nM; on ΔF508-CFTR [2] (setting [3]) it was 1110 nM.

Consider `CS(=O)(=O)C1(COc2cc(C(=O)O)nc3c2c(C2CCC2)nn3-c2ccccc2)CCC1` [compound 632, 3-cyclobutyl-4-{[1-(methanesulfonyl)cyclobutyl]methoxy}-1-phenyl-1H-pyrazolo[3,4-b]pyridine-6-carboxylic acid], for which, at ΔF508-CFTR [1], the “% Activation” value worked out at 129.55% and the EC50 was > 10000 nM. Moreover, at ΔF508-CFTR [2] (setting [3]), the “% Activation” value was found to be 18.94% and the EC50 is > 10000 nM.

`COCC1(C)CN(c2cc(C(=O)O)nc3c2c(C2CCC2)nn3-c2ccccc2)C1` [compound 521, 3-cyclobutyl-4-[3-(methoxymethyl)-3-methylazetidin-1-yl]-1-phenyl-1H-pyrazolo[3,4-b]pyridine-6-carboxylic acid]: at ΔF508-CFTR [1], the “% Activation” value was determined as 216.55% and the EC50 was determined as 290 nM. On ΔF508-CFTR [2] (setting [3]), the “% Activation” value stood at 58.57% and the EC50 is 488 nM.

Regarding `COCC1CN(CC2CCN(c3cc(C(=O)O)nc4c3c(C3CCC3)nn4-c3ccccc3)CC2)C1` [compound 831, 3-cyclobutyl-4-(4-{[3-(methoxymethyl)azetidin-1-yl]methyl}piperidin-1-yl)-1-phenyl-1H-pyrazolo[3,4-b]pyridine-6-carboxylic acid], at ΔF508-CFTR [1], the “% Activation” value is 402.5% and the EC50 came out at 407 nM. For the same compound, at ΔF508-CFTR [2] (setting [3]), the “% Activation” value is reported as 231.3% and the half-maximal effective concentration (EC50) was 1460 nM.

In the case of `Cc1nn(-c2ccccc2)c2nc(C(=O)O)cc(N3CCC([C@H](F)CN(C)C)CC3)c12` [compound 314, 4-{4-[(1S)-2-(dimethylamino)-1-fluoroethyl]piperidin-1-yl}-3-methyl-1-phenyl-1H-pyrazolo[3,4-b]pyridine-6-carboxylic acid], the “% Activation” value was found to be 250.1% on ΔF508-CFTR [1] and 92.46% on ΔF508-CFTR [2] (setting [4]). For the same compound, the 50% effective concentration (EC50) on ΔF508-CFTR [1] and on ΔF508-CFTR [2] (setting [5]) was 2510 nM each time.

For `N#CC1CCN(c2ccc(-c3cc(C(=O)O)nc4c3c(C3CCC3)nn4-c3ccnc(N4CCCC4)c3)cn2)CC1` [compound 413, 4-[6-(4-cyanopiperidin-1-yl)pyridin-3-yl]-3-cyclobutyl-1-[2-(pyrrolidin-1-yl)pyridin-4-yl]-1H-pyrazolo[3,4-b]pyridine-6-carboxylic acid], the “% Activation” value on ΔF508-CFTR [1] amounted to 392.2%; at ΔF508-CFTR [2] (setting [3]) it was 216.65%. Also, the EC50 amounted to 338 nM at ΔF508-CFTR [1] and 527 nM at ΔF508-CFTR [2] (setting [3]).

`Cc1nn(-c2ccccc2)c2nc(C(=O)O)cc(-c3ccc(N4CCN(C(C)(C)C)CC4)cc3)c12` [compound 60, 4-[4-(4-tert-butylpiperazin-1-yl)phenyl]-3-methyl-1-phenyl-1H-pyrazolo[3,4-b]pyridine-6-carboxylic acid]: the figures for the “% Activation” value at ΔF508-CFTR [1] and on ΔF508-CFTR [2] (setting [4]) were 143.1% and 14.9%, respectively. In addition, the EC50 on ΔF508-CFTR [1] and on ΔF508-CFTR [2] (setting [5]) was > 10000 nM throughout.
